Data: paper PMC8119466, “A screen of FDA-approved drugs identifies inhibitors of protein tyrosine phosphatase 4A3 (PTP4A3 or PRL-3)” (Scientific Reports, 2021)
Where a name gives a salt, the structure may show the parent alone. Read-outs that look alike come from different tables or passages of the source.

Assays:
Assay type in all cases: biochemical
recombinant PRL-3 = biological target: T1, recombinant PRL-3 (Homo sapiens, UniProt O75365); test: In vitro phosphatase assay (DiFMUP hydrolysis), PRL-3; note: test concentration or dose not given here
T1 construct: 6xHis (N, cleaved yes); made in house; host or cells: E. coli One Shot BL21 Star

recombinant PRL-1 = biological target: T2, recombinant PRL-1 (Homo sapiens, UniProt Q93096); test: In vitro phosphatase assay (DiFMUP hydrolysis), PRL-1; note: test concentration or dose not given here
T2 construct: 6xHis (N, cleaved yes); made in house; host or cells: E. coli One Shot BL21 Star
T2 sequence (Q93096 1-173): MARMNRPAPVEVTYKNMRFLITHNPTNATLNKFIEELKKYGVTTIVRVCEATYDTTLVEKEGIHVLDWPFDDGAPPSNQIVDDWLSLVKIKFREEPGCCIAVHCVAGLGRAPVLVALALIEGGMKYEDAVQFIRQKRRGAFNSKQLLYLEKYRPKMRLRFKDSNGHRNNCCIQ

recombinant PRL-2 = biological target: T3, recombinant PRL-2 (Homo sapiens, UniProt Q12974); test: In vitro phosphatase assay (DiFMUP hydrolysis), PRL-2;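 note: PRL-2 activity read as DiFMUP hydrolysis after 20 min at room temperature with drug, enzyme first pre-reduced at 4 °C for 20 min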
T3 construct: 6xHis (N, cleaved yes); made in house; host or cells: E. coli One Shot BL21 Star
T3 sequence (Q12974 1-167): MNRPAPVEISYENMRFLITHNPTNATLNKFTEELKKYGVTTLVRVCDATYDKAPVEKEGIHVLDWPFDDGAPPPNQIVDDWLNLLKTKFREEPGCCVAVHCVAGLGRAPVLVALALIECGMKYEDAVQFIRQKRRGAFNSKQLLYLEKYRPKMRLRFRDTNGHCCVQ

[1] = FDA-approved drug screen, compared to DMSO
[2] = FDA-approved drug screen, activity compared to DMSO

T1 sequence (O75365 whole entry): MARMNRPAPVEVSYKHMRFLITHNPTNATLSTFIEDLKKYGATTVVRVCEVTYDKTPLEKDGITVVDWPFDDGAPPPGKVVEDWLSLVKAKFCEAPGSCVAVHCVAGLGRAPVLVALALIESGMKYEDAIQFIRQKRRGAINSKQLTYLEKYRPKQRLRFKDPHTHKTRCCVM

SMILES | % Phosphatase Activity (compared to DMSO) PRL-3 (recombinant PRL-3; [1]) [%] | % Phosphatase Activity (compared to DMSO) PRL-1 (recombinant PRL-1; [1]) [%] | % Phosphatase Activity (compared to DMSO) PRL-2 (recombinant PRL-2; [1]) [%] | % Phosphatase Activity (compared to DMSO) PRL-3 (recombinant PRL-3; [2]) [%] | % Phosphatase Activity (compared to DMSO) PRL-1 (recombinant PRL-1; [2]) [%] | % Phosphatase Activity (compared to DMSO) PRL-2 (recombinant PRL-2; [2]) [%] | further results
CC(C)c1nc(CN(C)C(=O)N[C@@H](CCN2CCOCC2)C(=O)N[C@H](CC[C@H](Cc2ccccc2)NC(=O)OCc2cncs2)Cc2ccccc2)cs1 [Cobicistat (GS-9350)] | 95 | 88 | 95 | – | – | – | –
CCN1CCCC1CNC(=O)c1cc(S(=O)(=O)CC)c(N)cc1OC (stereo not drawn) [Amisulpride] | 74 | 94 | 89 | – | – | – | –
OC(CNCC(O)C1CCc2cc(F)ccc2O1)C1CCc2cc(F)ccc2O1 (stereo not drawn) [Nebivolol] | 87 | 105 | 81 | – | – | – | –
CC[C@@H]1C(=O)N(C)c2cnc(Nc3ccc(C(=O)N[C@H]4CC[C@H](N5CCN(CC6CC6)CC5)CC4)cc3OC)nc2N1C(C)C [Volasertib (BI 6727)] | – | – | – | 87 | 97 | 112 | –
O=c1ccc2ccc(OCCCCN3CCN(c4cccc5sccc45)CC3)cc2[nH]1 [Brexpiprazole] | 92 | 97 | 115 | – | – | – | –
CCN(CC)CCOC(=O)c1ccc(N)cc1 [Procaine] | 80 | 102 | 94 | – | – | – | –
CC(C)C(=O)Oc1ccc(CO)cc1[C@H](CCN(C(C)C)C(C)C)c1ccccc1 [Fesoterodine Fumarate] | 95 | 89 | 100 | – | – | – | –
COc1ccc(/C=C/C(=O)Nc2ccccc2C(=O)O)cc1OC [Tranilast] | – | – | – | 82 | 88 | 73 | –
CN1CCCCC1CCN1c2ccccc2Sc2ccc([S+](C)[O-])cc21 (stereo not drawn) [Mesoridazine Besylate] | – | – | – | – | – | – | % Phosphatase Activity (compared to DMSO) PRL-3 (recombinant PRL-3): 99%; % Phosphatase Activity (compared to DMSO) PRL-1 (recombinant PRL-1): 98%; % Phosphatase Activity (compared to DMSO) PRL-2 (recombinant PRL-2): 95%
Oc1cccc(O)c1 [Resorcinol] | 77 | 100 | 88 | – | – | – | –
OCc1ccccc1 [Benzyl alcohol] | 82 | 94 | 91 | – | – | – | –
NC[C@H](CC(=O)O)c1ccc(Cl)cc1 [(R)-baclofen] | 117 | 95 | 121 | – | – | – | –
Cn1nnc2c(C(N)=O)ncn2c1=O [Temozolomide] | – | – | – | 65 | 87 | 94 | –
CC(=O)O[C@]1(C(C)=O)CC[C@H]2[C@@H]3C[C@H](C)C4=CC(=O)CC[C@]4(C)[C@H]3CC[C@@]21C [Medroxyprogesterone acetate] | 85 | 89 | 89 | – | – | – | –
CN1CCN(CCCN2c3ccccc3Sc3ccc(Cl)cc32)CC1.O=C(O)/C=C\C(=O)O.O=C(O)/C=C\C(=O)O [Prochlorperazine dimaleate salt] | 91 | 93 | 108 | – | – | – | –
CS(=O)(=O)c1ccc([C@@H](O)[C@@H](CO)NC(=O)C(Cl)Cl)cc1 [Thiamphenicol] | – | – | – | 81 | 103 | 125 | –
O=C([O-])c1cc(=O)c2c(OCC(O)COc3cccc4oc(C(=O)[O-])cc(=O)c34)cccc2o1.[Na+].[Na+] [Disodium Cromoglycate] | 93 | 93 | 78 | – | – | – | –
NS(=O)(=O)c1cc2c(cc1Cl)NC(C(Cl)Cl)NS2(=O)=O (stereo not drawn) [Trichlormethiazide] | – | – | – | 75 | 100 | 93 | –
COc1cc2nc(N3CCN(C(=O)C4CCCO4)CC3)nc(N)c2cc1OC (stereo not drawn) [Terazosin] | – | – | – | 448 | 595 | 423 | –

SMILES | % Phosphatase Activity (compared to DMSO) PRL-3 (recombinant PRL-3; [1]) [%] | % Phosphatase Activity (compared to DMSO) PRL-1 (recombinant PRL-1; [1]) [%] | % Phosphatase Activity (compared to DMSO) PRL-2 (recombinant PRL-2; [1]) [%] | % Phosphatase Activity (compared to DMSO) PRL-3 (recombinant PRL-3; [2]) [%] | % Phosphatase Activity (compared to DMSO) PRL-1 (recombinant PRL-1; [2]) [%] | % Phosphatase Activity (compared to DMSO) PRL-2 (recombinant PRL-2; [2]) [%] | further results
C=CC(=O)Nc1cccc(Nc2nc(Nc3ccc(N4CCN(C(C)=O)CC4)cc3OC)ncc2C(F)(F)F)c1 [CO-1686 (AVL-301)] | 98 | 93 | 82 | – | – | – | –
CN(C)c1cc(NC(=O)CNC(C)(C)C)c(O)c2c1C[C@H]1C[C@H]3[C@H](N(C)C)C(O)=C(C(N)=O)C(=O)[C@@]3(O)C(O)=C1C2=O [Tigecycline] | – | – | – | 24 | 36 | 45 | –
Clc1ccc(C(c2ccccc2Cl)C(Cl)Cl)cc1 (stereo not drawn) [Mitotane] | 103 | 98 | 93 | – | – | – | –
C=CCc1cc(OC)c(O)c(C(=O)NCCO)c1 [Alibendol] | 81 | 90 | 109 | – | – | – | –
CCOc1ccc2nc3cc(N)ccc3c(N)c2c1 [Ethacridine lactate monohydrate] | 201 | 246 | 215 | – | – | – | –
CC1(C)CCC(C)(C)c2cc(NC(=O)c3ccc(C(=O)O)cc3)ccc21 [Tamibarotene] | – | – | – | 73 | 93 | 80 | –
COC(=O)N[C@H](C(=O)N1CCC[C@H]1c1ncc(-c2ccc(-c3ccc(-c4cnc([C@@H]5CCCN5C(=O)[C@@H](NC(=O)OC)C(C)C)[nH]4)cc3)cc2)[nH]1)C(C)C [Daclatasvir (BMS-790052)] | 236 | 320 | 324 | – | – | – | –
CNC1CCCN(c2c(F)cc3c(=O)c(C(=O)O)cn(C4CC4)c3c2OC)C1 (stereo not drawn) [Balofloxacin] | 123 | 282 | 411 | – | – | – | –
CC(=O)S[C@@H]1CC2=CC(=O)CC[C@]2(C)[C@H]2CC[C@@]3(C)[C@@H](CC[C@@]34CCC(=O)O4)[C@H]12 [Spironolactone] | – | – | – | 68 | 84 | 87 | –
Cn1cc[nH]c1=S [Methimazole] | 82 | 104 | 97 | – | – | – | –
CC1=C(CC(=O)O)c2cc(F)ccc2/C1=C\c1ccc([S+](C)[O-])cc1 (stereo not drawn) [Sulindac] | – | – | – | 85 | 83 | 96 | –
C[C@@H](O)[C@H]1C(=O)N2C(C(=O)[O-])=C(SC3Cn4cnc[n+]4C3)[C@H](C)[C@H]12 (stereo partly drawn) [Biapenem] | 93 | 100 | 74 | – | – | – | –
Cc1cccc(N(C)C(=S)Oc2ccc3ccccc3c2)c1 [Tolnaftate] | – | – | – | 89 | 98 | 114 | –
CCC(=O)OCC(=O)[C@@]1(OC(=O)CC)[C@@H](C)C[C@H]2[C@@H]3CCC4=CC(=O)C=C[C@]4(C)[C@@]3(Cl)[C@@H](O)C[C@@]21C [Beclomethasone dipropionate] | 90 | 98 | 91 | – | – | – | –
CO[C@H]1/C=C/O[C@@]2(C)Oc3c(C)c(O)c4c(O)c(c(/C=N/N5CCN(C)CC5)c(O)c4c3C2=O)NC(=O)/C(C)=C\C=C\[C@H](C)[C@H](O)[C@@H](C)[C@@H](O)[C@@H](C)[C@H](OC(C)=O)[C@@H]1C [Rifampin] | 71 | 58 | 49 | – | – | – | –
O=C[C@H](O)[C@@H](O)[C@H](O)CO [Xylose] | – | – | – | 68 | 115 | 102 | –
CCCCCCCCCCCC[N+](C)(C)CCOc1ccccc1 [Domiphen Bromide] | 84 | 106 | 104 | – | – | – | –
C[N+]1(C)[C@@H]2C[C@@H](OC(=O)C(O)(c3cccs3)c3cccs3)C[C@H]1[C@@H]1O[C@@H]12 [Tiotropium Bromide hydrate] | – | – | – | 84 | 95 | 115 | –
CC(C)(C)CC(C)(C)c1ccc(O)c(Cc2ccc(Cl)cc2Cl)c1 [Clofoctol] | 83 | 91 | 87 | – | – | – | –
